Test results: ChEMBL document CHEMBL1201862, “PubChem BioAssay data set” (2004)
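These data come from cells grown in 96-well plates and exposed to compound for 48 hours at five concentrations. GI50 = concentration required for 50% inhibition of growth.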 Active and inactive are the calls of the source. Rule as the data show it: active = GI50 up to about 1.1 µM and inactive = higher. Residues, ends and D or L forms follow the SMILES beside them. *: point of attachment. Bn = c1ccc(C*)cc1

Columns and labels:
Assay in all cases: inhibition of tumour cell growth, NCI panel, 48 h
[1] = test system: A498
[2] = test system: A549
[3] = test system: ACHN
[4] = test system: CAKI-1
[5] = test system: HT-29
[6] = test system: Hs-578T
[7] = test system: K562
[8] = test system: KM12
[9] = test system: LOX IMVI
[10] = test system: M14
[11] = test system: Malme-3M
[12] = test system: NCI-H23
[13] = test system: NCI/ADR-RES
[14] = test system: OVCAR-5
[15] = test system: PC-3
[16] = test system: SK-OV-3
[17] = test system: SNB-75
[18] = test system: SR
[19] = test system: SW-620
[20] = test system: UACC-62

Measured: GI50

COC(=O)C(CC(C)C)NC(=O)C(N)Cc1ccc(OCc2ccccc2)cc1 (stereo not given) (H-Tyr(Bn)-Leu-OMe; configuration not given here)
inactive: [1] > 10 µM | [2] > 10 µM | [3] > 10 µM | [4] > 10 µM | [5] > 10 µM | [6] > 10 µM | [7] > 10 µM | [8] > 10 µM | [9] > 10 µM | [10] > 10 µM | [11] 2.9 µM | [12] > 10 µM | [13] > 10 µM | [14] > 10 µM | [15] > 10 µM | [16] > 10 µM | [17] > 10 µM | [18] 7.64 µM | [19] > 10 µM | [20] > 10 µM
